# “And” between values parts separate entries of the source, which are not always exact repeats. Identical values can stand only once.
# Molecular target: SIK2 (Homo sapiens (Human), UniProt Q9H0K1)
# Experiment: SIK2 Enzymatic Assay Version 2 (High ATP)
# Assay type: biochemical
# Details: 3 mM ATP and 200 μM HDAC5tide final, ADP-Glo Max luminescence
# Outline: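 Run at room temperature; SIK2 enzyme at 6 nM (2× final) preincubated with compound 30 min before reaction. ADP formation detected by ADP-Glo Max (2 h reagent, 1 h detection) with luminescence read-out.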
# Sequence of SIK2 (Q9H0K1 whole entry, species assumed): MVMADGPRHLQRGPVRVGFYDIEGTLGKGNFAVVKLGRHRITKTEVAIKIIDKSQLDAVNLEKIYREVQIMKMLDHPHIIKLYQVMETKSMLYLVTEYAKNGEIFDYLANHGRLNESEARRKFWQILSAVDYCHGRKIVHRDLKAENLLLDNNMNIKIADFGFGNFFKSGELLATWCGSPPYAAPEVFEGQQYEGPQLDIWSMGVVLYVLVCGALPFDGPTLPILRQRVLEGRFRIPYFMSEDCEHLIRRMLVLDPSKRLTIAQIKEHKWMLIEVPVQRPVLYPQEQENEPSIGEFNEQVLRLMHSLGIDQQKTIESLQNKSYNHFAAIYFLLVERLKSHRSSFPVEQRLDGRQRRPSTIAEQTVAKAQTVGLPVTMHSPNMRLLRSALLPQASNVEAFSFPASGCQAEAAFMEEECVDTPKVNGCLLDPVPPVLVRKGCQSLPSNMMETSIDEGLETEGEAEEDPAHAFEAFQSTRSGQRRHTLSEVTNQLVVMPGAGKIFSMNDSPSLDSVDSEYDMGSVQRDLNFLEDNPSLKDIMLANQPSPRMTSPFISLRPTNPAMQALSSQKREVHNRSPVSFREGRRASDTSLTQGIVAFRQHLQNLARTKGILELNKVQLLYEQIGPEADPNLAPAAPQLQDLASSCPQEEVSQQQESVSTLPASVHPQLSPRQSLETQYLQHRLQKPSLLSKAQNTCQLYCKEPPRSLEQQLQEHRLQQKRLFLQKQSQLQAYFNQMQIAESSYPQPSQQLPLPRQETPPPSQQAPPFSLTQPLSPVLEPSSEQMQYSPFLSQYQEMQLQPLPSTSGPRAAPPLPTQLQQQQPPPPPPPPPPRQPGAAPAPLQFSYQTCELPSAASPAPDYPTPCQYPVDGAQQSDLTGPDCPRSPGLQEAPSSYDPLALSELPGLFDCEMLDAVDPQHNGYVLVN
row,Compound,IC50
1,"Cc1cc(Nc2cc3cc(-c4c(OC[C@H]5CCN5C)cnn4C)ccn3n2)nc(C(C)(C)C)n1 [Example 151, N-(2-tert-butyl-6-methyl-pyrimidin-4-yl)-5-[2-methyl-4-[[(2R)-1-methylazetidin-2-yl]methoxy]pyrazol-3-yl]pyrazolo[1,5-a]pyridin-2-amine]",< 0.847 nM
2,"Cc1cc(Nc2cc3cc(-c4c(OC[C@H]5CCN5C)cnn4C)ccn3n2)nn(C)c1=O [Example 152, 2,4-dimethyl-6-[[5-[2-methyl-4-[[(2R)-1-methylazetidin-2-yl]methoxy]pyrazol-3-yl]pyrazolo[1,5-a]pyridin-2-yl]amino]pyridazin-3-one]",< 0.847 nM
3,"Cc1cc(Nc2cc3cc(-c4c(OC[C@H]5CCN5C)cnn4C)ccn3n2)nc(CC2CC2)n1 [Example 153, N-[2-(cyclopropylmethyl)-6-methyl-pyrimidin-4-yl]-5-[2-methyl-4-[[(2R)-1-methylazetidin-2-yl]methoxy]pyrazol-3-yl]pyrazolo[1,5-a]pyridin-2-amine]",< 0.847 nM
4,"COc1cnc(Nc2cc3cc(-c4c(OC[C@H]5CCN5C)cnn4C)ccn3n2)cn1 [Example 154, N-(5-methoxypyrazin-2-yl)-5-[2-methyl-4-[[(2R)-1-methylazetidin-2-yl]methoxy]pyrazol-3-yl]pyrazolo[1,5-a]pyridin-2-amine]",7.9 nM
5,"CN1CC[C@@H]1COc1cnn(C)c1-c1ccn2nc(Nc3cnc(OC(F)F)cn3)cc2c1 [Example 155, N-[5-(difluoromethoxy)pyrazin-2-yl]-5-[2-methyl-4-[[(2R)-1-methylazetidin-2-yl]methoxy]pyrazol-3-yl]pyrazolo[1,5-a]pyridin-2-amine]",6.6 nM
6,"CN1CC[C@@H]1COc1cnn(C)c1-c1ccn2nc(NC(=O)[C@H]3C[C@H]3c3ccccc3)cc2c1 [Example 158, (1S,2R)—N-[5-[2-methyl-4-[[(2R)-1-methylazetidin-2-yl]methoxy]pyrazol-3-yl]pyrazolo[1,5-a]pyridin-2-yl]-2-phenyl-cyclopropanecarboxamide]",47.7 nM
7,"CCN1CC[C@@H]1COc1cnn(C)c1-c1ccn2nc(Nc3cnc(C(F)(F)F)cn3)cc2c1 [Example 160, 5-[4-[[(2R)-1-ethylazetidin-2-yl]methoxy]-2-methyl-pyrazol-3-yl]-N-[5-(trifluoromethyl)pyrazin-2-yl]pyrazolo[1,5-a]pyridin-2-amine]",2.5 nM and 3.6 nM
8,"CCN1CC[C@@H]1COc1cnn(C)c1-c1ccn2nc(Nc3ccnc(C(F)(F)F)n3)cc2c1 [Example 161, 5-[4-[[(2R)-1-ethylazetidin-2-yl]methoxy]-2-methyl-pyrazol-3-yl]-N-[2-(trifluoromethyl)pyrimidin-4-yl]pyrazolo[1,5-a]pyridin-2-amine]",< 0.847 nM
9,"CCN1CC[C@@H]1COc1cnn(C)c1-c1ccn2nc(Nc3cc(C(F)(F)F)nc(C)n3)cc2c1 [Example 162, 5-[4-[[(2R)-1-ethylazetidin-2-yl]methoxy]-2-methyl-pyrazol-3-yl]-N-[2-methyl-6-(trifluoromethyl)pyrimidin-4-yl]pyrazolo[1,5-a]pyridin-2-amine]",< 0.847 nM
10,"CCN1CC[C@@H]1COc1cnn(C)c1-c1ccn2nc(Nc3ccnc(OC)n3)cc2c1 [Example 163, 5-[4-[[(2R)-1-ethylazetidin-2-yl]methoxy]-2-methyl-pyrazol-3-yl]-N-(2-methoxypyrimidin-4-yl)pyrazolo[1,5-a]pyridin-2-amine]",2.2 nM
11,"CCN1CC[C@@H]1COc1cnn(C)c1-c1ccn2nc(Nc3cc(C(F)(F)F)ncn3)cc2c1 [Example 164, 5-[4-[[(2R)-1-ethylazetidin-2-yl]methoxy]-2-methyl-pyrazol-3-yl]-N-[6-(trifluoromethyl)pyrimidin-4-yl]pyrazolo[1,5-a]pyridin-2-amine]",1.5 nM
12,"CCN1CC[C@@H]1COc1cnn(C)c1-c1ccn2nc(Nc3ncc(C)c(C)n3)cc2c1 [Example 165, N-(4,5-dimethylpyrimidin-2-yl)-5-[4-[[(2R)-1-ethylazetidin-2-yl]methoxy]-2-methyl-pyrazol-3-yl]pyrazolo[1,5-a]pyridin-2-amine]",26.2 nM
13,"CCN1CC[C@@H]1COc1cnn(C)c1-c1ccn2nc(Nc3ccc(OC)cn3)cc2c1 [Example 166, 5-[4-[[(2R)-1-ethylazetidin-2-yl]methoxy]-2-methyl-pyrazol-3-yl]-N-(5-methoxy-2-pyridyl)pyrazolo[1,5-a]pyridin-2-amine]",1.8 nM
14,"CCN1CC[C@@H]1COc1cnn(C)c1-c1ccn2nc(Nc3cc(OC)ncn3)cc2c1 [Example 167, 5-[4-[[(2R)-1-ethylazetidin-2-yl]methoxy]-2-methyl-pyrazol-3-yl]-N-(6-methoxypyrimidin-4-yl)pyrazolo[1,5-a]pyridin-2-amine]",2.7 nM
15,"CCN1CC[C@H]1COc1cnn(C)c1-c1ccn2nc(Nc3cc(C)nc(C(F)(F)F)n3)cc2c1 [Example 168, 5-[4-[[(2S)-1-ethylazetidin-2-yl]methoxy]-2-methyl-pyrazol-3-yl]-N-[6-methyl-2-(trifluoromethyl)pyrimidin-4-yl]pyrazolo[1,5-a]pyridin-2-amine]",23 nM
16,"CCc1cc(Nc2cc3cc(-c4c(OC[C@@H]5CCN5CC)cnn4C)ccn3n2)nc(C)n1 [Example 169, 5-[4-[[(2S)-1-ethylazetidin-2-yl]methoxy]-2-methyl-pyrazol-3-yl]-N-(6-ethyl-2-methyl-pyrimidin-4-yl)pyrazolo[1,5-a]pyridin-2-amine]",38.7 nM
17,"CCN1CC[C@@H]1COc1cnn(C)c1-c1ccn2nc(Nc3ccc(=O)n(C)n3)cc2c1 [Example 170, 6-[[5-[4-[[(2R)-1-ethylazetidin-2-yl]methoxy]-2-methyl-pyrazol-3-yl]pyrazolo[1,5-a]pyridin-2-yl]amino]-2-methyl-pyridazin-3-one]",0.9 nM
18,"CCN1CC[C@@H]1COc1cnn(C)c1-c1ccn2nc(Nc3cc(C)nc(C4CC4)n3)cc2c1 [Example 171, N-(2-cyclopropyl-6-methyl-pyrimidin-4-yl)-5-[4-[[(2R)-1-ethylazetidin-2-yl]methoxy]-2-methyl-pyrazol-3-yl]pyrazolo[1,5-a]pyridin-2-amine]",< 0.847 nM
19,"CCc1cc(Nc2cc3cc(-c4c(OC[C@H]5CCN5CC)cnn4C)ccn3n2)nc(C)n1 [Example 172, 5-[4-[[(2R)-1-ethylazetidin-2-yl]methoxy]-2-methyl-pyrazol-3-yl]-N-(6-ethyl-2-methyl-pyrimidin-4-yl)pyrazolo[1,5-a]pyridin-2-amine]",< 0.847 nM
20,"CCN1CC[C@@H]1COc1cnn(C)c1-c1ccn2nc(Nc3cc(C)nc(OC)n3)cc2c1 [Example 173, 5-[4-[[(2R)-1-ethylazetidin-2-yl]methoxy]-2-methyl-pyrazol-3-yl]-N-(2-methoxy-6-methyl-pyrimidin-4-yl)pyrazolo[1,5-a]pyridin-2-amine]",< 0.847 nM
21,"CCN1CC[C@@H]1COc1cnn(C)c1-c1ccn2nc(Nc3ccc4nc(C)cn4n3)cc2c1 [Example 174, N-[5-[4-[[(2R)-1-ethylazetidin-2-yl]methoxy]-2-methyl-pyrazol-3-yl]pyrazolo[1,5-a]pyridin-2-yl]-2-methyl-imidazo[1,2-b]pyridazin-6-amine]",< 0.847 nM
22,"CCN1CC[C@@H]1COc1cnn(C)c1-c1ccn2nc(Nc3ccc4nccn4n3)cc2c1 [Example 175, N-[5-[4-[[(2R)-1-ethylazetidin-2-yl]methoxy]-2-methyl-pyrazol-3-yl]pyrazolo[1,5-a]pyridin-2-yl]imidazo[1,2-b]pyridazin-6-amine]",< 0.847 nM
23,"CCN1CC[C@@H]1COc1cnn(C)c1-c1ccn2nc(Nc3ncc(F)cn3)cc2c1 [Example 176, (R)-5-(4-((1-ethylazetidin-2-yl)methoxy)-1-methyl-1H-pyrazol-5-yl)-N-(5-fluoropyrimidin-2-yl)pyrazolo[1,5-a]pyridin-2-amine]",72.7 nM
24,"CCN1CC[C@@H]1COc1cnn(C)c1-c1ccn2nc(Nc3cc(C)nc(C(C)(C)C)n3)cc2c1 [Example 177, N-(2-tert-butyl-6-methyl-pyrimidin-4-yl)-5-[4-[[(2R)-1-ethylazetidin-2-yl]methoxy]-2-methyl-pyrazol-3-yl]pyrazolo[1,5-a]pyridin-2-amine]",1.5 nM
25,"CCN1CC[C@@H]1COc1cnn(C)c1-c1ccn2nc(Nc3cc(C)c(=O)n(C)n3)cc2c1 [Example 178, 6-[[5-[4-[[(2R)-1-ethylazetidin-2-yl]methoxy]-2-methyl-pyrazol-3-yl]pyrazolo[1,5-a]pyridin-2-yl]amino]-2,4-dimethyl-pyridazin-3-one]",< 0.847 nM
26,"CCN1CC[C@@H]1COc1cnn(C)c1-c1ccn2nc(Nc3cc(C)nc(CC4CC4)n3)cc2c1 [Example 179, N-[2-(cyclopropylmethyl)-6-methyl-pyrimidin-4-yl]-5-[4-[[(2R)-1-ethylazetidin-2-yl]methoxy]-2-methyl-pyrazol-3-yl]pyrazolo[1,5-a]pyridin-2-amine]",< 0.847 nM
27,"CCN1CC[C@@H]1COc1cnn(C)c1-c1ccn2nc(Nc3cnc(OC)cn3)cc2c1 [Example 180, 5-[4-[[(2R)-1-ethylazetidin-2-yl]methoxy]-2-methyl-pyrazol-3-yl]-N-(5-methoxypyrazin-2-yl)pyrazolo[1,5-a]pyridin-2-amine]",2.1 nM
28,"CCN1CC[C@@H]1COc1cnn(C)c1-c1ccn2nc(Nc3cnc(OC(F)F)cn3)cc2c1 [Example 181, N-[5-(difluoromethoxy)pyrazin-2-yl]-5-[4-[[(2R)-1-ethylazetidin-2-yl]methoxy]-2-methyl-pyrazol-3-yl]pyrazolo[1,5-a]pyridin-2-amine]",2.2 nM
29,"Cn1ncc(CO[C@@H]2CCNC2)c1-c1ccn2nc(NC(=O)C3CC3)cc2c1 [Example 182, N-[5-[2-methyl-4-[[(3R)-pyrrolidin-3-yl]oxymethyl]pyrazol-3-yl]pyrazolo[1,5-a]pyridin-2-yl]cyclopropanecarboxamide]",34.4 nM
30,"Cn1ncc(CO[C@H]2C[C@H]3COC[C@@H](C2)N3)c1-c1ccn2nc(NC(=O)C3CC3)cc2c1 [Example 183, N-[5-[2-methyl-4-[[(1S,5R)-3-oxa-9-azabicyclo[3.3.1]nonan-7-yl]oxymethyl]pyrazol-3-yl]pyrazolo[1,5-a]pyridin-2-yl]cyclopropanecarboxamide]",11.7 nM
